Test results from US10538555B2, “Macrocyclic inhibitors of the PD-1/PD-L1 and CD80(B7-1)/PD-L1 protein/protein interactions” (BRISTOL-MYERS SQUIBB COMPANY, priority 2014, dated 2020).
*1 amine or outer side, *2 acyl side, *3 side chain or, on linkers, in order; H or OH if unused. Where a SMILES comes first, the peptide text is derived from it. Bridges are numbered along the chain shown (N, C = ends). [ ]: non-standard residue; d: D form. ξ: configuration not given here. Trp(1-CH2COOH) = N[C@@H](Cc1cn(CC(=O)O)c2ccccc12)C(=O)O; Phe(3,4,5-F3) = N[C@@H](Cc1cc(F)c(F)c(F)c1)C(=O)O; X6 = NC(=O)CCC(=O)[C@H](CSCC(=O)[*:2])N[*:1]; Phe(4-F) = N[C@@H](Cc1ccc(F)cc1)C(=O)O; NMeIle(3ξ) = CCC(C)[C@H](NC)C(=O)O; NMeF = CN[C@@H](Cc1ccccc1)C(=O)O; X1 = O=C([C@H]1COCCN1[*:1])[*:2]; dHyp = O=C(O)[C@H]1C[C@H](O)CN1; NMehSer = CN[C@@H](CCO)C(=O)O; NMeNle = CCCC[C@H](NC)C(=O)O; dPip = O=C(O)[C@H]1CCCCN1; Orn = NCCC[C@H](N)C(=O)O; Dab = NCC[C@H](N)C(=O)O

Biological target: T1, Human PD-L1/PD-1 (Homo sapiens, UniProt Q9NZQ7)
T1 construct: TVMV protease cleavage site (C); made in house; host or cells: HEK293T cells
Experiment: HTRF Human PD-L1/PD-1 binding assay (PD-1-Ig/PD-L1-His)
Conditions: PD-L1-His 10 nM, PD-1-Ig 20 nM; class symbol; read-out: HTRF Human PD-L1/PD-1 Binding Assay IC50 Range
In short: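 HTRF read-out (665/620 nm ratio) after 30 min equilibration with Eu-cryptate anti-Ig mAb (1 nM) and APC anti-His mAb (20 nM). Peptides preincubated 15 min with PD-L1-His (10 nM), then PD-1-Ig (20 nM) added for 15 min.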

T1 sequence (Q9NZQ7 with tags, fused parts or gaps): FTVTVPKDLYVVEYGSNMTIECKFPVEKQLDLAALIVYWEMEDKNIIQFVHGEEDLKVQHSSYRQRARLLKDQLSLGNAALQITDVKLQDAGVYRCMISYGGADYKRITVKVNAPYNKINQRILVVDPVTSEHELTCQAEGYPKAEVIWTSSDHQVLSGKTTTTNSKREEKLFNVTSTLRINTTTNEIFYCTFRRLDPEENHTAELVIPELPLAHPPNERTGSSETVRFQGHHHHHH

Compound	IC50 [nM]
CCCC[C@H]1C(=O)N2CCC[C@@H]2C(=O)N[C@@H](CC(=O)O)C(=O)N[C@@H](C(C)C)C(=O)N(C)[C@@H](C(C)CC)C(=O)N[C@@H](CCC(N)=O)C(=O)N2CCCC[C@@H]2C(=O)N[C@@H](Cc2c[nH]c3ccccc23)C(=O)N[C@@H](Cc2ccc(O)cc2)C(=O)N[C@@H](CC(C)C)C(=O)N[C@H](C(=O)NCC(N)=O)CSCC(=O)N[C@@H](Cc2ccc(F)cc2)C(=O)N(C)[C@@H](Cc2ccccc2)C(=O)N1C (stereo partly drawn) [Example 9261] ({CH2CO}-[Phe(4-F)][NMeF][NMeNle][dP]DV[NMeIle(3ξ)]Q[dPip]WYLCG-NH2; thioether N-13)	1000 to 10000
CCCC[C@H]1C(=O)N2CCC[C@@H]2C(=O)N[C@@H](CC(=O)O)C(=O)N[C@@H](C(C)C)C(=O)N(C)[C@@H](C(C)CC)C(=O)N[C@@H](CCC(N)=O)C(=O)N2CCC[C@@H]2C(=O)N[C@@H](Cc2c[nH]c3ccccc23)C(=O)N[C@@H](Cc2ccc(O)cc2)C(=O)N[C@@H](CCCN)C(=O)N[C@H](C(=O)NCC(N)=O)CSCC(=O)N[C@@H](Cc2ccc(F)cc2)C(=O)N(C)[C@@H](Cc2ccccc2)C(=O)N1C (stereo partly drawn) [Example 9262] ({CH2CO}-[Phe(4-F)][NMeF][NMeNle][dP]DV[NMeIle(3ξ)]Q[dP]WY[Orn]CG-NH2; thioether N-13)	1000 to 10000
CCCC[C@H]1C(=O)N2CCC[C@@H]2C(=O)N[C@@H](CC(=O)O)C(=O)N[C@@H](C(C)C)C(=O)N(C)[C@@H](C(C)CC)C(=O)N[C@@H](CCC(N)=O)C(=O)N2CCCC[C@@H]2C(=O)N[C@@H](Cc2c[nH]c3ccccc23)C(=O)N[C@@H](Cc2ccc(O)cc2)C(=O)N[C@@H](CCCN)C(=O)N[C@H](C(=O)NCC(N)=O)CSCC(=O)N[C@@H](Cc2ccc(F)cc2)C(=O)N(C)[C@@H](Cc2ccccc2)C(=O)N1C (stereo partly drawn) [Example 9263] ({CH2CO}-[Phe(4-F)][NMeF][NMeNle][dP]DV[NMeIle(3ξ)]Q[dPip]WY[Orn]CG-NH2; thioether N-13)	1000 to 10000
COCC[C@H]1C(=O)N2C[C@@H](O)C[C@@H]2C(=O)N[C@@H](CC(=O)O)C(=O)N[C@@H](C(C)C)C(=O)N(C)[C@@H](Cc2ccccc2)C(=O)N[C@@H](Cc2ccc(O)cc2)C(=O)N2CCOC[C@@H]2C(=O)N[C@@H](Cc2c[nH]c3ccccc23)C(=O)N[C@@H](Cc2ccc(O)cc2)C(=O)N[C@@H](CC(C)C)C(=O)N[C@H](C(=O)NCC(N)=O)CSCC(=O)N[C@@H](Cc2cc(F)c(F)c(F)c2)C(=O)N(C)[C@@H](Cc2ccccc2)C(=O)N1C [Example 9264] ({CH2CO}-[Phe(3,4,5-F3)][NMeF][NMehSer](Me)[dHyp]DV[NMeF]Y[X1]WYLCG-NH2; thioether N-13)	1 to 9.9
COCC[C@H]1C(=O)N2C[C@@H](O)C[C@@H]2C(=O)N[C@@H](CC(=O)O)C(=O)N[C@@H](C(C)C)C(=O)N(C)[C@@H](Cc2ccccc2)C(=O)N[C@@H](Cc2ccc(O)cc2)C(=O)N2CCOC[C@@H]2C(=O)N[C@@H](Cc2c[nH]c3ccccc23)C(=O)N[C@@H](Cc2ccc(O)cc2)C(=O)N[C@@H](CCCN)C(=O)N[C@H](C(=O)NCC(N)=O)CSCC(=O)N[C@@H](Cc2cc(F)c(F)c(F)c2)C(=O)N(C)[C@@H](Cc2ccccc2)C(=O)N1C [Example 9265] ({CH2CO}-[Phe(3,4,5-F3)][NMeF][NMehSer](Me)[dHyp]DV[NMeF]Y[X1]WY[Orn]CG-NH2; thioether N-13)	1 to 9.9
COCC[C@H]1C(=O)N2C[C@@H](O)C[C@@H]2C(=O)N[C@@H](CC(=O)O)C(=O)N[C@@H](C(C)C)C(=O)N(C)[C@@H](Cc2ccccc2)C(=O)N[C@@H](CCC(N)=O)C(=O)N2CCOC[C@@H]2C(=O)N[C@@H](Cc2c[nH]c3ccccc23)C(=O)N[C@@H](Cc2ccc(O)cc2)C(=O)N[C@@H](CC(C)C)C(=O)N[C@H](C(=O)NCC(N)=O)CSCC(=O)N[C@@H](Cc2cc(F)c(F)c(F)c2)C(=O)N(C)[C@@H](Cc2ccccc2)C(=O)N1C [Example 9266] ({CH2CO}-[Phe(3,4,5-F3)][NMeF][NMehSer](Me)[dHyp]DV[NMeF]Q[X1]WYLCG-NH2; thioether N-13)	1 to 9.9
COCC[C@H]1C(=O)N2C[C@@H](O)C[C@@H]2C(=O)N[C@@H](CC(=O)O)C(=O)N[C@@H](C(C)C)C(=O)N(C)[C@@H](Cc2ccccc2)C(=O)N[C@@H](CCC(N)=O)C(=O)N2CCOC[C@@H]2C(=O)N[C@@H](Cc2c[nH]c3ccccc23)C(=O)N[C@@H](Cc2ccc(O)cc2)C(=O)N[C@@H](CCCN)C(=O)N[C@H](C(=O)NCC(N)=O)CSCC(=O)N[C@@H](Cc2cc(F)c(F)c(F)c2)C(=O)N(C)[C@@H](Cc2ccccc2)C(=O)N1C [Example 9267] ({CH2CO}-[Phe(3,4,5-F3)][NMeF][NMehSer](Me)[dHyp]DV[NMeF]Q[X1]WY[Orn]CG-NH2; thioether N-13)	1 to 9.9
COCC[C@H]1C(=O)N2C[C@@H](O)C[C@@H]2C(=O)N[C@@H](CC(=O)O)C(=O)N[C@@H](C(C)C)C(=O)N(C)[C@@H](Cc2ccccc2)C(=O)N[C@@H](CCC(=O)O)C(=O)N2CCOC[C@@H]2C(=O)N[C@@H](Cc2c[nH]c3ccccc23)C(=O)N[C@@H](Cc2ccc(O)cc2)C(=O)N[C@@H](CCCN)C(=O)N[C@H](C(=O)NCC(N)=O)CSCC(=O)N[C@@H](Cc2cc(F)c(F)c(F)c2)C(=O)N(C)[C@@H](Cc2ccccc2)C(=O)N1C [Example 9268] ({CH2CO}-[Phe(3,4,5-F3)][NMeF][NMehSer](Me)[dHyp]DV[NMeF]E[X1]WY[Orn]CG-NH2; thioether N-13)	1 to 9.9
COCC[C@H]1C(=O)N2C[C@@H](O)C[C@@H]2C(=O)N[C@@H](CC(=O)O)C(=O)N[C@@H](C(C)C)C(=O)N(C)[C@@H](Cc2ccccc2)C(=O)N[C@@H](CC(=O)O)C(=O)N2CCOC[C@@H]2C(=O)N[C@@H](Cc2c[nH]c3ccccc23)C(=O)N[C@@H](Cc2ccc(O)cc2)C(=O)N[C@@H](CCCN)C(=O)N[C@H](C(=O)NCC(N)=O)CSCC(=O)N[C@@H](Cc2cc(F)c(F)c(F)c2)C(=O)N(C)[C@@H](Cc2ccccc2)C(=O)N1C [Example 9269] ({CH2CO}-[Phe(3,4,5-F3)][NMeF][NMehSer](Me)[dHyp]DV[NMeF]D[X1]WY[Orn]CG-NH2; thioether N-13)	1 to 9.9
CCCC[C@H]1C(=O)N2C[C@@H](O)C[C@@H]2C(=O)N[C@@H](CC(=O)O)C(=O)N[C@@H](C(C)C)C(=O)N(C)[C@@H](Cc2ccccc2)C(=O)N[C@@H](CCC(=O)O)C(=O)N2CCOC[C@@H]2C(=O)N[C@@H](Cc2cn(CC(=O)O)c3ccccc23)C(=O)N[C@@H](Cc2ccc(O)cc2)C(=O)N[C@@H](CCCN)C(=O)N[C@H](C(=O)NCC(N)=O)CSCC(=O)N[C@@H](Cc2cc(F)c(F)c(F)c2)C(=O)N(C)[C@@H](Cc2ccccc2)C(=O)N1C [Example 9270] ({CH2CO}-[Phe(3,4,5-F3)][NMeF][NMeNle][dHyp]DV[NMeF]E[X1][Trp(1-CH2COOH)]Y[Orn]CG-NH2; thioether N-13)	1 to 9.9
CCCC[C@H]1C(=O)N2C[C@@H](O)C[C@@H]2C(=O)N[C@@H](CC(=O)O)C(=O)N[C@@H](C(C)C)C(=O)N(C)[C@@H](Cc2ccccc2)C(=O)N[C@@H](CCC(=O)O)C(=O)N2CCOC[C@@H]2C(=O)N[C@@H](Cc2cn(CC(=O)O)c3ccccc23)C(=O)N[C@@H](Cc2ccc(O)cc2)C(=O)N[C@@H](CCN)C(=O)N[C@H](C(=O)CCC(N)=O)CSCC(=O)N[C@@H](Cc2cc(F)c(F)c(F)c2)C(=O)N(C)[C@@H](Cc2ccccc2)C(=O)N1C [Example 9271] (cyclo(DV[NMeF]E[X1][Trp(1-CH2COOH)]Y[Dab][X6][Phe(3,4,5-F3)][NMeF][NMeNle][dHyp]))	1 to 9.9
CCCC[C@H]1C(=O)N2C[C@@H](O)C[C@@H]2C(=O)N[C@@H](CC(=O)O)C(=O)N[C@@H](C(C)C)C(=O)N(C)[C@@H](Cc2ccccc2)C(=O)N[C@@H](Cc2ccc(O)cc2)C(=O)N2C[C@@H](O)C[C@@H]2C(=O)N[C@@H](Cc2c[nH]c3ccccc23)C(=O)N[C@@H](Cc2ccc(O)cc2)C(=O)N[C@@H](CC(C)C)C(=O)N[C@H](C(=O)NCC(N)=O)CSCC(=O)N[C@@H](Cc2cc(F)c(F)c(F)c2)C(=O)N(C)[C@@H](Cc2ccccc2)C(=O)N1C [Example 9273] ({CH2CO}-[Phe(3,4,5-F3)][NMeF][NMeNle][dHyp]DV[NMeF]Y[dHyp]WYLCG-NH2; thioether N-13)	1 to 9.9
CCCC[C@H]1C(=O)N2C[C@@H](O)C[C@@H]2C(=O)N[C@@H](CC(=O)O)C(=O)N[C@@H](C(C)C)C(=O)N(C)[C@@H](Cc2ccccc2)C(=O)N[C@@H](Cc2ccc(O)cc2)C(=O)N2C[C@@H](O)C[C@@H]2C(=O)N[C@@H](Cc2c[nH]c3ccccc23)C(=O)N[C@@H](Cc2ccc(O)cc2)C(=O)N[C@@H](CCCN)C(=O)N[C@H](C(=O)NCC(N)=O)CSCC(=O)N[C@@H](Cc2cc(F)c(F)c(F)c2)C(=O)N(C)[C@@H](Cc2ccccc2)C(=O)N1C [Example 9274] ({CH2CO}-[Phe(3,4,5-F3)][NMeF][NMeNle][dHyp]DV[NMeF]Y[dHyp]WY[Orn]CG-NH2; thioether N-13)	1 to 9.9
CCCC[C@H]1C(=O)N2C[C@@H](O)C[C@@H]2C(=O)N[C@@H](CC(=O)O)C(=O)N[C@@H](C(C)C)C(=O)N(C)[C@@H](Cc2ccccc2)C(=O)N[C@@H](CCC(=O)O)C(=O)N2C[C@@H](O)C[C@@H]2C(=O)N[C@@H](Cc2c[nH]c3ccccc23)C(=O)N[C@@H](Cc2ccc(O)cc2)C(=O)N[C@@H](CC(C)C)C(=O)N[C@H](C(=O)NCC(N)=O)CSCC(=O)N[C@@H](Cc2cc(F)c(F)c(F)c2)C(=O)N(C)[C@@H](Cc2ccccc2)C(=O)N1C [Example 9275] ({CH2CO}-[Phe(3,4,5-F3)][NMeF][NMeNle][dHyp]DV[NMeF]E[dHyp]WYLCG-NH2; thioether N-13)	1 to 9.9
CCCC[C@H]1C(=O)N2C[C@@H](O)C[C@@H]2C(=O)N[C@@H](CC(=O)O)C(=O)N[C@@H](C(C)C)C(=O)N(C)[C@@H](Cc2ccccc2)C(=O)N[C@@H](CCC(=O)O)C(=O)N2C[C@@H](O)C[C@@H]2C(=O)N[C@@H](Cc2c[nH]c3ccccc23)C(=O)N[C@@H](Cc2ccc(O)cc2)C(=O)N[C@@H](CCCN)C(=O)N[C@H](C(=O)NCC(N)=O)CSCC(=O)N[C@@H](Cc2cc(F)c(F)c(F)c2)C(=O)N(C)[C@@H](Cc2ccccc2)C(=O)N1C [Example 9276] ({CH2CO}-[Phe(3,4,5-F3)][NMeF][NMeNle][dHyp]DV[NMeF]E[dHyp]WY[Orn]CG-NH2; thioether N-13)	1 to 9.9
